Measured values taken from patent publication US4550179A, “N-(1-Allyl-2-pyrrolidinyl-methyl) 2-methoxy-4-amino-5-methylsulfamoyl benzamide” (Societe d'Etudes Scientifiques et Industrielles de l'Ile-de …, priority 1980, dated 1985).

Tests used:
[1] = acute toxicity (lethal dose 50); settings: in vivo, male mouse
[2] = system: rat; experiment: stereotypic movements of the rat caused by dopaminergic agonists (apomorphine or amphetamine); type: in vivo
[3] = system: serotonin; experiment: hypertensive response to serotonin, anaesthetised dog treated with chlorisondamine; type: in vivo
Excerpt: The effects of the benzamide on the cardiovascular system were studied in a dog anaesthetised with chloralose, with the following results:
% inhibition of hypertension after […]

[4] = BATCH 1, 1 mg/kg I.V., serotonin 37.5 μg/kg I.V.
[5] = BATCH 1, 5 mg/kg I.V., serotonin 25 μg/kg I.V.
[6] = BATCH 2, 1 mg/kg I.V., serotonin 25 μg/kg I.V.
[7] = BATCH 2, 5 mg/kg I.V., serotonin 25 μg/kg I.V.

C=CCN1CCCC1CNC(=O)c1cc(S(=O)(=O)NC)c(N)cc1OC (stereo not shown) [Benzamide according to the invention, N-(1-allyl-2-pyrrolidinyl-methyl)2-methoxy-4-amino-5-methylsulfamoyl benzamide]
LD50 ([1]; ip, intraperitoneal (basis)): 184 mg/kg
LD50 ([1]; po, per os (basis)): 3600 mg/kg
LD50 ([1]; sc, subcutaneous (basis)): 204 mg/kg
LD50 ([1]; intravenous (basis)): 44 mg/kg
counteraction of stereotypic movements [2]: does not counteract the stereotypic movements of the rat
% inhibition of hypertension after 3 mn [3, 4]: 22%
% inhibition of hypertension after 30 mn [3, 4]: 8%
% inhibition of hypertension after 3 mn [3, 5]: 62%
% inhibition of hypertension after 30 mn [3, 5]: 63%
% inhibition of hypertension after 1 h [3, 5]: 51%
% inhibition of hypertension after 1 h 30 [3, 5]: 51%
% inhibition of hypertension after 2 h [3, 5]: 40%
% inhibition of hypertension after 3 mn [3, 6]: 36%
% inhibition of hypertension after 30 mn [3, 6]: 11%
% inhibition of hypertension after 1 h [3, 6]: 0%
% inhibition of hypertension after 3 mn [3, 7]: 78%
% inhibition of hypertension after 30 mn [3, 7]: 65%
% inhibition of hypertension after 1 h [3, 7]: 48%
% inhibition of hypertension after 1 h 30 [3, 7]: 43%
% inhibition of hypertension after 2 h [3, 7]: 33%
% inhibition of hypertension after 3 h ([3]; BATCH 2, 5 mg/kg I.V., serotonin 25 μg/kg I.V., 3 h): 33%
hypertensive response to serotonin ([3]; anaesthetised dog, chlorisondamine): reduces the hypertensive response to serotonin
